Experimental data taken from ChEMBL document CHEMBL4325908, “Ligand-based design, synthesis and biological evaluation of xanthine derivatives as LSD1/KDM1A inhibitors” (Eur J Med Chem, 2019).
pIC50: −log10 of the molar value.

How the values were obtained:
[1] = molecular target: Lysine-specific histone demethylase 1A (Homo sapiens, UniProt O60341); experiment: Inhibition of full length recombinant LSD1 (unknown origin) expressed in Escherichia coli BL21(DE3) using H3K4me2 as substrate after 30 mins in presence of FAD by amplex red reagent based fluorescence assay
MGC-803 [2] = experiment: Antiproliferative activity against human MGC803 cells after 72 hrs by MTT assay; conditions: MGC-803, 72 h
MGC-803 [3] = experiment: Antiproliferative activity against LSD1 knock down human MGC803 cells after 72 hrs by MTT assay; type: functional, cell-based; conditions: MGC-803, 72 h
MGC-803 [4] = experiment: Ratio of IC50 for LSD1 knock down human MGC803 cells to IC50 for human MGC803 cells; type: functional
[5] = molecular target: Bromodomain-containing protein 4 (Homo sapiens) (UniProt O60885); experiment: Inhibition of BRD4 (unknown origin) at 25 uM relative to control
[6] = molecular target: Indoleamine 2,3-dioxygenase 1 (Homo sapiens, UniProt P14902); experiment: Inhibition of IDO1 (unknown origin)
Indoleamine 2,3-dioxygenase 1, sequence (P14902 whole entry): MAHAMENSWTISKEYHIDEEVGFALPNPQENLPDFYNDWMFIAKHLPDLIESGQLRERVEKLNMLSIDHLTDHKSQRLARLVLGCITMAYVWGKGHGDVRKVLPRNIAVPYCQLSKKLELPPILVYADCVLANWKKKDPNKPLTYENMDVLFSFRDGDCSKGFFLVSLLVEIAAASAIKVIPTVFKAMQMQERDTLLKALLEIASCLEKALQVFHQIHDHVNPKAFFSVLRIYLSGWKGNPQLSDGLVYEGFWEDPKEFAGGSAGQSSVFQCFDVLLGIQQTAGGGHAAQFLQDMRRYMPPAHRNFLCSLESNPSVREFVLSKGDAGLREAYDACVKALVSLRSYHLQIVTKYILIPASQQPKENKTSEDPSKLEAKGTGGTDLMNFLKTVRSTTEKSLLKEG

MAO-A [7] = molecular target: T1, MAO-A (Homo sapiens, UniProt P21397); experiment: Inhibition of full length recombinant FLAG-tagged human MAO-A expressed in baculovirus infected sf9 cells at 1 uM preincubated for 15 mins followed by luciferin derived substrate addition measured after 60 mins by luciferase reporter gene assay relative to control; conditions: probe luciferin derived substrate
T1 sequence (P21397 whole entry): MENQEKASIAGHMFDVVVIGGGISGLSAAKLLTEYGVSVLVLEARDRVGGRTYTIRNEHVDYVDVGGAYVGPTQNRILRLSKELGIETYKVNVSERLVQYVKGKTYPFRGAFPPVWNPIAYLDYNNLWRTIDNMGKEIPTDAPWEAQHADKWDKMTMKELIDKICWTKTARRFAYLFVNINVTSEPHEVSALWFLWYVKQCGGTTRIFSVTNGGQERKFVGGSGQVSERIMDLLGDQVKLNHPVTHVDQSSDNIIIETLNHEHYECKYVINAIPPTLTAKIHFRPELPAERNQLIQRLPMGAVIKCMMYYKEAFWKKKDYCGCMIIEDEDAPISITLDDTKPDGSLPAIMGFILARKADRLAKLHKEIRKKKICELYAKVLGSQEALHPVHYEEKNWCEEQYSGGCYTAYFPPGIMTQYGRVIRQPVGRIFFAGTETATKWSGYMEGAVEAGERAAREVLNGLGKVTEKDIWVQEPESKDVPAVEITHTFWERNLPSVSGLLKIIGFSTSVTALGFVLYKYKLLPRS

MAO-B [8] = molecular target: T2, MAO-B (Homo sapiens, UniProt P27338); experiment: Inhibition of full length recombinant FLAG-tagged human MAO-B expressed in baculovirus infected sf9 cells at 1 uM preincubated for 15 mins followed by luciferin derived substrate addition measured after 60 mins by luciferase reporter gene assay relative to control; conditions: probe luciferin derived substrate
T2 sequence (P27338 whole entry): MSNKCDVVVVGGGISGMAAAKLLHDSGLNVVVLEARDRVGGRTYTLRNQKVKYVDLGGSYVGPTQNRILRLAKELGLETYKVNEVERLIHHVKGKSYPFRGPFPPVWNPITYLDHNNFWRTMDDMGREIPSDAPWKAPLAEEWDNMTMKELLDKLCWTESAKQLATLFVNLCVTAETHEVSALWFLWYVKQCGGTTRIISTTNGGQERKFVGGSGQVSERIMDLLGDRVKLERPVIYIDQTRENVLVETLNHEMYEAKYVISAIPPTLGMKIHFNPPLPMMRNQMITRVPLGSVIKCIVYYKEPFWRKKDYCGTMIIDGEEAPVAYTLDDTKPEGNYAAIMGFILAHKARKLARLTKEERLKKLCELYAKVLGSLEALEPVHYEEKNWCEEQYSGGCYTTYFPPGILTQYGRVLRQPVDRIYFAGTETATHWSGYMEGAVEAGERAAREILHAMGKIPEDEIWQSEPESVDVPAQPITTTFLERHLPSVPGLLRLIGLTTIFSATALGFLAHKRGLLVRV

MAO-A [9] = molecular target: T1, MAO-A; experiment: Inhibition of full length recombinant FLAG-tagged human MAO-A expressed in baculovirus infected sf9 cells at 0.1 uM preincubated for 15 mins followed by luciferin derived substrate addition measured after 60 mins by luciferase reporter gene assay relative to control; conditions: probe luciferin derived substrate
MAO-B [10] = molecular target: T2, MAO-B; experiment: Inhibition of full length recombinant FLAG-tagged human MAO-B expressed in baculovirus infected sf9 cells at 0.1 uM preincubated for 15 mins followed by luciferin derived substrate addition measured after 60 mins by luciferase reporter gene assay relative to control; conditions: probe luciferin derived substrate

pIC50 [1] | pIC50 (MGC-803 [2]) | pIC50 (MGC-803 [3]) | inhibition [5] [%] | pIC50 [6] | inhibition at 1 h, 1 µM (MAO-A [7]) [%] | inhibition at 1 h, 1 µM (MAO-B [8]) [%] | inhibition at 1 h, 0.1 µM (MAO-A [9]) [%] | inhibition at 1 h, 0.1 µM (MAO-B [10]) [%] | Compound | Ratio IC50 (MGC-803 [4])
4.85 | 6.16 | 5.69 | 49 | 4.01 |  |  |  |  | CCCn1c(SCc2ccc(F)cc2)nc2c1c(=O)[nH]c(=O)n2C | 2 - 3
5.19 |  |  |  |  |  |  |  |  | CCCn1c(S)nc2c1c(=O)[nH]c(=O)n2C | 
5.05 | 5.61 | 5.30 | 52 | 4.01 | 20 | 61 | 9 | 16 | CCCn1c(SCc2cccc(C)c2)nc2c1c(=O)[nH]c(=O)n2C | 2 - 3
4.59 |  |  |  |  |  |  |  |  | CCCn1c(SCc2ccc(Cl)cc2)nc2c1c(=O)[nH]c(=O)n2C | 
